Among the test systems are A498; A549; CAKI-1; DU-145; HCT-15; HT-29; KM12; LOX IMVI; MDA-MB-231; Malme-3M; NCI/ADR-RES; PC-3; SK-MEL-28; SK-OV-3; SNB-19; SNB-75; SR; T47D; TK-10; UO-31.
Holding throughout (assay): NCI-60 cell line screen, 48 h

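Protocol summary: plate cells (96-well), add compound at 5 concentrations, incubate 48 h, interpolate endpoints linearly. GI50: concentration for 50% inhibition of growth.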 Activity calls are given as the source filed them. Cut-off read from the data, not from the text of the source: active = GI50 up to about 1.1 µM and inactive = higher.

In the case of `O=C1c2cccnc2-c2nccc3c2c1nc1cc(Br)ccc13`, the GI50 in the assay with A498 was 0.0196 µM (active); in the assay on A549 it was 0.122 µM (active); with CAKI-1, 0.218 µM (active); with DU-145, 0.121 µM (active); in the assay on HCT-15, 0.0721 µM; in the assay with HT-29, 0.989 µM (active). For the same compound, the GI50 with KM12 is 0.147 µM (active); with LOX IMVI it was 0.0533 µM (active); in the assay with MDA-MB-231, 0.103 µM (active); in the assay with Malme-3M it was 0.108 µM (active); in the assay with NCI/ADR-RES it was 0.0375 µM (active); in the assay with PC-3, 0.275 µM (active). The GI50 with SK-MEL-28 is 0.0843 µM (active); with SK-OV-3, 0.239 µM (active); in the assay on SNB-19, 0.27 µM (active); in the assay with SNB-75, 0.243 µM (active); in the assay on SR it was 0.0221 µM (active); in the assay with T47D it was 0.0883 µM (active). The GI50 in the assay with TK-10 was 0.979 µM (active); with UO-31, 0.221 µM (active).

`CC(=O)Nc1ccc(-c2nc3ccccc3s2)cc1I`: the GI50 is 6.5 µM (inactive) in the assay with A498; 45 µM (inactive) in the assay on A549; 20 µM (inactive) in the assay with CAKI-1; 11 µM (inactive) in the assay with DU-145; more than 83.4 µM in the assay on HCT-15; > 65.6 µM (inactive) in the assay with HT-29. Moreover, the GI50 in the assay on KM12 was 54 µM (inactive); in the assay on LOX IMVI it was 24.8 µM (inactive); in the assay on MDA-MB-231 it was 17.5 µM (inactive); in the assay on Malme-3M it was 34.8 µM (inactive); in the assay on NCI/ADR-RES, 42.3 µM (inactive); in the assay with PC-3 it was 41.6 µM (inactive). The GI50 with SK-MEL-28 was > 100 µM (inactive); in the assay on SK-OV-3, 18.3 µM (inactive); with SNB-19, 24.3 µM (inactive); in the assay on SNB-75 it was 24.2 µM (inactive); in the assay with SR it was > 100 µM (inactive); in the assay on T47D it was 1.85 µM (inactive). Further, in the assay with UO-31, the GI50 is 15.1 µM (inactive).

Turning to `Cc1nc(SCC(N)=O)c2sc(=S)n(-c3ccccc3)c2n1`, the GI50 with A498 was > 10 µM (inactive); in the assay on A549, > 10 µM (inactive); with CAKI-1, > 10 µM (inactive); in the assay on DU-145, > 10 µM (inactive); with HCT-15, more than 10 µM; in the assay with HT-29, > 10 µM (inactive). Moreover, the GI50 in the assay with KM12, in the assay on LOX IMVI, with MDA-MB-231, in the assay on Malme-3M, in the assay on NCI/ADR-RES and in the assay on PC-3 was > 10 µM (inactive) each time. Further, the GI50 in the assay with SK-MEL-28, in the assay on SK-OV-3, with SNB-19, in the assay with SNB-75, in the assay with SR and in the assay with T47D was > 10 µM (inactive) in each case. Besides, the GI50 in the assay with TK-10 was > 10 µM (inactive).

`Cc1ccc(S(=O)(=O)n2ccc(-c3ccc4ccn(S(=O)(=O)c5ccc(C)cc5)c4c3)c2)cc1`: the GI50 in the assay on A498 is > 100 µM (inactive); in the assay on A549, > 100 µM (inactive); with CAKI-1, > 100 µM (inactive); in the assay with DU-145, > 100 µM (inactive); in the assay on HCT-15 it was more than 100 µM; in the assay on HT-29, > 100 µM (inactive). Also, the GI50 in the assay on KM12, in the assay on LOX IMVI, in the assay with MDA-MB-231, with Malme-3M, in the assay with NCI/ADR-RES and with PC-3 was > 100 µM (inactive) each time. For the same compound, the GI50 was > 100 µM (inactive) with SK-OV-3; 41 µM (inactive) in the assay on SNB-19; 94.2 µM (inactive) in the assay with SNB-75; > 100 µM (inactive) in the assay with SR; > 100 µM (inactive) with T47D; > 100 µM (inactive) in the assay on TK-10. Moreover, in the assay on UO-31, the GI50 is > 100 µM (inactive).

Source of the values: ChEMBL document CHEMBL1201862, “PubChem BioAssay data set” (2004).
